Test results reported in US20040127455A1, “Muscosal immunoregulatory agent and its use” (KABUSHIKI Kaisha Hayashibara Seibutsu KK, priority 2000, published 2004).

What was measured:
[1] = system: immunocompetent cells from the Peyer's patches; experiment: IFN-γ production by immunocompetent cells from the Peyer's patches of orally treated mice, LPS stimulation (Experiment 1); assay type: in vivo, male C3H/HeN mice; settings: 1 g/kg oral, once per day for five days, two days culture, versus non-treated mice (FIG. 1)
Method: The effect on response of immunocompetent cells with trehalose administration was evaluated based on the production level of IFN-γ as a merkmal when the immunocompetent cells from the Peyer's patches were stimulated with lipopolysaccharide (LPS). IFN-γ is a cytokine which also improves the production of IgA as described above. α,α-Trehalose crystalline powder (registered trademark of “TREHA”, commercialized by Hayashibara Shoji Co. Ltd., Okayama, Japan) was dissolved in distilled water and sterilized, and then administrated into male C3H/HeN, five weeks aged mice (ten mice in each group) through oral pathway for five days by one time per day with a dosage of 1 g/kg mouse body weight of α,α-trehalose. Non-α,α-trehalose administrated mice as a control were administrated with an equal volume of distilled water. All the mice were bred under a clean environment, and freely fed with a sterilized solid fodder and water. […] The cells were incubated for two days in an incubator maintained at 37° C. and 5% CO2, after that, the IFN-γ concentration in each culture was measured by a conventional enzyme immunoassay. […]

[2] = system: immunocompetent cells from the Peyer's patches; experiment: IL-2, IFN-γ and IgA production by immunocompetent cells from the Peyer's patches of orally treated mice, LPS or Con A stimulation (Experiment 2); assay type: in vivo, female ddY mice; settings: 0.1 g/kg oral, five times per week for four weeks, three days culture
Method: The effect on the response of immunocompetent cells with trehalose administration was evaluated by the production level of IL-2, IFN-γ, and IgA as a merkmal when the immunocompetent cells from the Peyer's patches stimulated with lipopolysaccharide (LPS) or Concanavalin A (Con A). Specifically, 0.1 g/kg mouse body weight of α,α-trehalose was administrated into female ddY mice through oral administration for four weeks with five times per a week, and non-α,α-trehalose administrated mice were used as a control. All the mice were anatomized and picked up all the Peyer's patches, which were then cut into pieces and treated with 0.2% (w/v) of collagenase solution at 37° C. for 30 minutes, passed through a cell strainer to remove non-digestive materials, and centrifuged to obtain a pellet. The pellet was suspended with a 45% (v/v) percol solution, and the suspension was put on a 75% (v/v) percol solution and centrifuged. Then, immunocompetent cells in an inter layer of percol were recovered and suspended in RPMI1640 medium with 10% of fetal calf serum and 5×10^−5 mol/l of 2-mercaptethanol. The resulting suspension was divided into three groups, and the two groups of which were mixed with 2 μg/ml of LPS or 5 μg/ml of Con A and adjusted a final concentration to 1×10^6 cells/ml. The resulting group as a control was not received with the above stimulation. They were incubated for three days in an incubator maintained at 37° C. and 5% CO2. Thereafter, the concentrations of the IL-2, IFN-γ and IgA concentration in the resulting cultures were measured by a conventional immunoassay method in Experiment 1.

In the case of `OC[C@H]1O[C@H](O[C@H]2O[C@H](CO)[C@@H](O)[C@H](O)[C@H]2O)[C@H](O)[C@@H](O)[C@@H]1O` [α,α-Trehalose, α,α-trehalose], the “IFN-γ production with no LPS stimulation” value ([1]; cells with 0 μg/ml LPS) is reported as “tendency to decrease IFN-γ production”, the “IFN-γ production under the LPS stimulation” value ([1]; cells with 0.2 or 1 μg/ml LPS) is reported as “stronger tendency of increasing production of IFN-γ” and the IFN-γ ([2]; no stimulation) is reported as “Under 0.4 IU/ml”. The IL-2 ([2]; no stimulation) was “Under 50 pg”, the IgA ([2]; no stimulation) was 719 ng/mL and the IFN-γ ([2]; stimulation Con A 5 μg/ml) was 6.4 IU/ml. For the same compound, the IL-2 ([2]; stimulation Con A 5 μg/ml) was “Under 50 pg”, the IgA ([2]; stimulation Con A 5 μg/ml) was 1671 ng/mL and the IFN-γ ([2]; stimulation LPS 2 μg/ml) was 4.5 IU/ml. It also gave an IL-2 ([2]; stimulation LPS 2 μg/ml) of 115 pg and an IgA ([2]; stimulation LPS 2 μg/ml) of 2305 ng/mL.
